The source made the active and inactive calls. For most assays here, no stated cut-off is given here; in the data, actives have a measured EC50 and inactives only a lower limit.
Legend:
[1] = target: Cytochrome P450 3A4 (Homo sapiens, UniProt P08684);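 further: CYP3A4 tested as one member of a cytochrome P450 panel screen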
[2] = target: Cytochrome P450 2C9 (Homo sapiens, UniProt P11712)
[3] = cytotoxicity toward NIH3T3 fibroblasts, dose response, counter-screen, cell-based, ATP luminescence, mouse fibroblasts (AID 2010); format: functional;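 further: cells exposed to compound for about 90 hours before reading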
[4] = inhibitors of intracellular T. cruzi replication, confirmation, NIH3T3 host cells, beta-gal luminescence (AID 2044); format: functional, cell-based;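 further: intracellular parasites grown in NIH/3T3 mouse fibroblasts as host cells; luminescent beta-galactosidase reporter signal from transgenic T. cruzi replicating inside host cells; inhibitors lower the luminescence signal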
[5] = tested on: H4; assay: Luminescence Cell-Based Dose Response HTS to Identify Activators of 5'UTR Stem-Loop Driven Prion Protein mRNA Translation in H4 Neuroglioblastoma Cells. [Related pubchem assays: 1829 (Project Summary), 1814 (Primary HTS)]; format: functional; conditions: Homo sapiens
[6] = Luminescence Cell-Based Dose Confirmation HTS to Identify Activators of 5'UTR Stem-Loop Driven Alpha-Synuclein mRNA Translation in H4 Neuroglioblastoma Cells. [Related pubchem assays: 1829 (Project Summary), 1814 (Primary HTS)]; format: functional
[7] = Luminescence Cell-Based Dose Response HTS to Identify Activators of Luciferase Translation or Activity in H4 […] Cells. [Related pubchem assays: 1829 (Project Summary), 1814 (Primary HTS)]; format: functional
[8] = tested on: Streptococcus sp. 'group A'; assay: growth inhibition of control SK(-) GAS strain, dose response, counter-screen for streptokinase expression inhibitor project, luminescence, kanamycin, BacTiterGlo, confirmation (AID 1900); format: functional, organism-based
[9] = tested on: Streptococcus; assay: Group A Streptococcus viability loss, dose response, counter-screen for streptokinase expression inhibitor project, luminescence, BacTiterGlo (AID 1915); format: functional, organism-based;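 further: potency for reduction of bacterial viability or growth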
[10] = target: T1, Corticotropin-releasing factor receptor 2/Corticotropin-releasing factor-binding protein (Homo sapiens, UniProt P24387+Q13324); assay: activators of CRF receptor 2 with binding protein – uHTS hits, confirmation (AID 602473); format: functional; conditions: read-out: EC50_Mean
T1 sequence (Q13324 whole entry): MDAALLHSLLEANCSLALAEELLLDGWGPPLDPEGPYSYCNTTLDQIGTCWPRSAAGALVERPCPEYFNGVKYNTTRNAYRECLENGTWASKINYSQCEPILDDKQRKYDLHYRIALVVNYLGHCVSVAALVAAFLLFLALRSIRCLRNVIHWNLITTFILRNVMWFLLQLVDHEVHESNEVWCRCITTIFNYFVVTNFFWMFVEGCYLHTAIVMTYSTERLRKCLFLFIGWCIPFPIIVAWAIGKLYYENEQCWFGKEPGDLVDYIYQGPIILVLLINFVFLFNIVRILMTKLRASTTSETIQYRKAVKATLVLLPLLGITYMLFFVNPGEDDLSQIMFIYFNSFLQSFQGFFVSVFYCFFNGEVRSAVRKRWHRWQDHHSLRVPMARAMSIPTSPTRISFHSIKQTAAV
T1 sequence (P24387 whole entry): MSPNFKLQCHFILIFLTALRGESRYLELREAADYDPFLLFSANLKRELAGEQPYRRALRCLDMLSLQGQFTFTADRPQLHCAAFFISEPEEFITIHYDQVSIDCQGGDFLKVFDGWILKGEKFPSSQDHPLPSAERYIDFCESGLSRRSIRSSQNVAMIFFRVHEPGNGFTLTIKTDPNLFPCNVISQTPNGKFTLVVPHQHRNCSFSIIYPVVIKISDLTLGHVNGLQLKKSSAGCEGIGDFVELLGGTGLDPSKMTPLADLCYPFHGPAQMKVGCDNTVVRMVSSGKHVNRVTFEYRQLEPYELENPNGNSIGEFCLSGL

Cytochrome P450 2C9, sequence (P11712 whole entry): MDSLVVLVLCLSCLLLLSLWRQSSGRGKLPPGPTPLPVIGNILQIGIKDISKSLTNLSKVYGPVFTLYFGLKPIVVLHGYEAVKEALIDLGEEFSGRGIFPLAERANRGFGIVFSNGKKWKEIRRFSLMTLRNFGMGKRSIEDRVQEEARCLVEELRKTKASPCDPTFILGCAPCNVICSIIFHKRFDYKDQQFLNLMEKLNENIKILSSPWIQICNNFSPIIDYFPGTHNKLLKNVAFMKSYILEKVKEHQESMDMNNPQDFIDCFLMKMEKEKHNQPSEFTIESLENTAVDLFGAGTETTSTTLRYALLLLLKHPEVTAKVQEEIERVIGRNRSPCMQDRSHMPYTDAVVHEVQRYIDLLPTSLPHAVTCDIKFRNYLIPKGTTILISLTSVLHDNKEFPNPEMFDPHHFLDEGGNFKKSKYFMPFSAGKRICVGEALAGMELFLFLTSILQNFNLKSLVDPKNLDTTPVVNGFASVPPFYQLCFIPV
Cytochrome P450 3A4, sequence (P08684 whole entry): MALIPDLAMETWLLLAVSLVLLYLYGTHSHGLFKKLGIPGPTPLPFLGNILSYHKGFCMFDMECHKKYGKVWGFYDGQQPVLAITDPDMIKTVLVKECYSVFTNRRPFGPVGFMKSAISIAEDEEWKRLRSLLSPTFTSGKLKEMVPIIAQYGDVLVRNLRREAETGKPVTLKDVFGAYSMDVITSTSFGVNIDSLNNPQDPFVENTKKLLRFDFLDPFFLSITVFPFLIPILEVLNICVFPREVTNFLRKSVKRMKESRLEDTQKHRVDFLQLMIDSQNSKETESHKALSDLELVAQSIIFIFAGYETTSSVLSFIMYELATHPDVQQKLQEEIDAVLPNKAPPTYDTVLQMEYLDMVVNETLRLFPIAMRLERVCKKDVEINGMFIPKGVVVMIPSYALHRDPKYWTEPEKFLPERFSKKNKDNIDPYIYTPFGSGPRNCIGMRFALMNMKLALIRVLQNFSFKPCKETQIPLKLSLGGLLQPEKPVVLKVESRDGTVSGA

Compound	EC50 [5]	EC50 [6]	EC50 [7]	further results
COc1ccc(N=C(S)Nc2ncccc2C)c(OC)c1				AC50 [1]: 39.8 µM (inconclusive); AC50 [2]: 20 µM (inconclusive)
Cc1cccc2nc(-c3ccccc3)nc(N3CCC(O)(c4ccc(Cl)cc4)CC3)c12				EC50 [3]: > 60 µM (not active); EC50 [4]: 0.301 µM (active)
Cc1nc(S(=O)(=O)N(C)c2ccccc2)c(C#N)c(C)c1Cl				AC50 [2]: 17.8 µM (inconclusive)
Nc1nonc1-c1noc(CCCN2C(=O)c3ccccc3C2=O)n1	15.7 µM (active)	12.9 µM (active)	12.1 µM (active)	
CC(c1ccon1)N(C)Cc1c[nH]nc1-c1ccc(-c2ccccc2)cc1 (stereo unspecified)	> 120 µM (not active)	> 120 µM (not active)	30.5 µM (active)	
CCCCn1nc(C(=O)Nc2nc3c(s2)CCCC3)c2ccccc2c1=O				EC50 [3]: > 60 µM (inconclusive); EC50 [4]: 1.73 µM (active)
CCc1nnc(NC(=O)/C=C/c2ccco2)s1	6.44 µM (active)	13.7 µM (active)	54.5 µM (active)	
CC1CNC(=Nc2cccc3ccccc23)S1 (stereo unspecified)				AC50 [1]: 15.8 µM (inconclusive); AC50 [2]: 14.1 µM (inconclusive)
CC1CCN(CC(=O)Nc2cccc([N+](=O)[O-])c2)CC1				AC50 [2]: 15.8 µM (inconclusive)
COc1cc(/C=C/C(=O)OCC(=O)c2c(N)n(C)c(=O)n(C)c2=O)ccc1OCC#N				EC50 [8]: 7.23 µM (active); EC50 [9]: 4.1 µM (active)
Cc1nn(C(C)C(=O)N2CCc3ccccc32)c(C)c1[N+](=O)[O-] (stereo unspecified)				AC50 [1]: 17.8 µM (inconclusive)
O=C(Nc1ccc2c(c1)OCO2)N1CCN(c2ccccc2)CC1	10.3 µM (active)	> 120 µM (not active)	16.2 µM (active)	
CS(=O)(=O)N(Cc1ccccc1)c1ccc(C(=O)N2CCOCC2)cc1				EC50 [10]: > 53 µM (inactive)
Cc1ccc(OCCn2cnc3ccccc3c2=O)c([N+](=O)[O-])c1		0.247 µM (active)	2.44 µM (active)	
C=CCN=C(S)N1CCN(c2ncc3c(=O)c(C(=O)O)cn(CC)c3n2)CC1				AC50 [2]: 0.224 µM (inconclusive)
CCOC(=O)Cc1cc(-c2ccc(OC)cc2)nc2ccc3ccccc3c12	15.6 µM (active)	9.64 µM (active)	12.6 µM (active)	
COc1ccc(C(=N)NOC(=O)c2c(-c3ccccc3Cl)noc2C)cc1OC				EC50 [3]: 10.7 µM (active); EC50 [4]: 1.49 µM (active)
COC(=O)c1ccc(N2OC3(C)C=CC2CC3)cc1 (stereo unspecified)	13.5 µM (active)	9.96 µM (active)	5.16 µM (active)	
O=C(CCOc1ccccc1)Nc1ccccc1				AC50 [1]: 22.4 µM (inconclusive); AC50 [2]: 1 µM (inconclusive)
CCOC(=O)C1CCN(c2nnc(N3CCCC3=O)s2)CC1	33 µM (active)	3.42 µM (active)	6.58 µM (active)	
Cc1ccc(CN2C(=O)N/C(=C/c3cc(C)n(-c4ccccn4)c3C)C2=O)cc1	> 120 µM (not active)	11.9 µM (active)	7.26 µM (active)	
CCOC(=O)c1c(NC(=O)CSc2nnc(-c3ccncc3)n2Cc2ccco2)sc(C)c1C				EC50 [3]: > 60 µM (not active); EC50 [4]: 2.9 µM (active)
CN(CCNC(=O)C1CC(=O)N(c2ccc(F)c(Cl)c2)C1)Cc1ccccc1 (stereo unspecified)				EC50 [3]: > 60 µM (not active); EC50 [4]: 0.22 µM (active)
Cc1ncc(CC(=O)n2cc(C(=O)c3cc(Cl)ccc3O)cn2)s1	40.2 µM (active)	16.5 µM (active)	> 120 µM (not active)	
CC1CCC(=C(C#N)c2nc(-c3cc4ccccc4oc3=O)cs2)CC1 (stereo unspecified)			0.106 µM (active)	
Cc1ccc(S(=O)(=O)Nc2ccc(N3CCN(C)CC3)nc2)cc1				EC50 [3]: > 60 µM (not active); EC50 [4]: 1.26 µM (active)

Compound	EC50 [5]	EC50 [6]	EC50 [7]	further results
COc1ccc(-c2cc(-c3ccccc3)c(C#N)c(SCC(=O)Nc3ncc(C)s3)n2)cc1				EC50 [3]: > 60 µM (inconclusive); EC50 [4]: > 60 µM (not active)
Cc1ccc(N2CCN(c3ccc(C)cc3)C2c2cccnc2)cc1				EC50 [3]: > 60 µM (not active); EC50 [4]: 0.768 µM (active)
CC1(C)CC(=O)c2cc(NC=C(C(=O)c3ccccc3)C(=O)c3ccccc3)c(=O)oc2C1	> 120 µM (not active)	15.6 µM (active)	> 60 µM (not active)	
Nn1c(CSc2ccccn2)nc2ccccc2c1=O	23.3 µM (active)	42.9 µM (active)	35.2 µM (active)	
CN(C)c1ccc(-c2nccc(Nc3ccc(F)cc3)n2)cc1				AC50 [2]: 0.631 µM (inconclusive)
Cc1cccc(CCN2CCN=C2Nc2ccccc2)c1				EC50 [10]: 14 µM (active)
O=C(c1c[nH]cc1-c1ccccc1)c1cccc2ccccc12				EC50 [3]: 4.49 µM (active); EC50 [4]: 1.93 µM (active)
Sc1ncnc2scc(-c3ccc(Cl)cc3)c12				EC50 [8]: 13.1 µM (active); EC50 [9]: 47.4 µM (active)
O=C(Nc1ccc2c[nH]nc2c1)c1ccc(Cl)c(S(=O)(=O)N2CCOCC2)c1	27.6 µM (active)	6.56 µM (active)	42.2 µM (active)	
COc1ccc(C(CNc2ccc(S(=O)(=O)N3CCCC3)cc2[N+](=O)[O-])N2CCCC2)cc1 (stereo unspecified)				EC50 [3]: 31.8 µM (active); EC50 [4]: 0.843 µM (active)
CC(C)CC(=O)Nc1ccc(C(=O)COC(=O)Cc2n[nH]c(=O)c3ccccc23)cc1				EC50 [10]: 12.4 µM (active)
O=C(CCN1C(=O)S/C(=C\C=C\c2ccccc2)C1=O)Nc1ccc(O)cc1	8.5 µM (active)		0.155 µM (active)	
COc1ccc(C(=O)C2=C(O)C(=O)N(c3cc(C)on3)C2c2ccc(OC)c(OC)c2)cc1OC (stereo unspecified)				AC50 [1]: 22.4 µM (inconclusive)
COc1ccc2nc(N3CCN(C(=O)C4COc5ccccc5O4)CC3)sc2c1 (stereo unspecified)	12.8 µM (active)	4.45 µM (active)	30.7 µM (active)	
S=C(NCc1ccco1)N1CCN(Cc2ccco2)CC1				AC50 [2]: 14.1 µM (inconclusive)
CC1=C(C#N)C(Nc2ccc(Cl)cn2)(C(F)(F)F)C(=O)N1 (stereo unspecified)				AC50 [1]: 15.8 µM (inconclusive)
CCN(CC)c1nc(C=Cc2ccc(N(C)C)cc2)c2nccnc2n1				EC50 [10]: 2.56 µM (active)
O=C(COc1ccc(F)cc1)N(Cc1cccs1)C1CCS(=O)(=O)C1 (stereo unspecified)				EC50 [10]: > 53 µM (inactive)
C/C(=N\NC(=S)Nc1cccc(C)c1)c1ccco1				EC50 [3]: > 60 µM (not active); EC50 [4]: 2.8 µM (active)
O=C(O)c1cc2c(cc1S(=O)(=O)O)[C@H]1[C@@H](C3[C@H]2[C@@]2(Cl)C(Cl)=C(Cl)[C@@]3(Cl)C2(Cl)Cl)[C@]2(Cl)C(Cl)=C(Cl)[C@]1(Cl)C2(Cl)Cl (stereo partly specified)				AC50 [1]: 3.16 µM (inconclusive)
COc1ccc(-c2c/c(=N/c3c(C)n(C)n(-c4ccccc4)c3=O)c3ccccc3o2)cc1	2.02 µM (active)	11.1 µM (active)	11.1 µM (active)	
COC(=O)c1ccc(-c2ccc(/C=N/N3C(=O)C4C5C=CC(CC5)C4C3=O)o2)cc1 (stereo unspecified)	18.9 µM (active)	6.71 µM (active)	19.5 µM (active)	
COc1ccc(/C=C(\NC(=O)c2ccccc2)C(=O)N/N=C/c2ccncc2)cc1				AC50 [2]: 12.6 µM (active)
CC(=N)/C(C#N)=C(/O)CSc1nnc(Nc2cccc(C)c2)s1	> 120 µM (not active)	10.1 µM (active)	45.1 µM (active)	
COc1cc(C=C(C#N)C#N)cc(O)c1O				AC50 [1]: 10 µM (inconclusive)

— ChEMBL document CHEMBL1201862, “PubChem BioAssay data set” (2004)
